For one assay, the target named is Cholinesterase (Equus caballus, UniProt P81908). Briefly: Inhibition of equine serum BuChE using butyrylthiocholine chloride as substrate incubated for 15 to 20 mins by Ellman's method. It is filed as cell-free.
The next assay has as its target Acetylcholinesterase (Electrophorus electricus, UniProt O42275). Kind of assay: Inhibition of electric eel AChE using acetylthiocholine iodide as substrate incubated for 15 to 20 mins by Ellman's method.
Assay [1] can be described thus: Selectivity index, ratio of IC50 for equine serum BuChE using butyrylthiocholine chloride as substrate to IC50 for electric eel AChE using acetylthiocholine iodide as substrate incubated for 15 to 20 mins by Ellman's method. The conditions noted are these: time 15-20 min.
Assay [2] can be described thus: Antioxidant activity assessed as ABTS radical scavenging activity. It is filed as functional.
Assay [3] concerns the target Acetylcholinesterase (Electrophorus electricus) (UniProt O42275). Kind of assay: Mixed type inhibition of electric eel AChE assessed as decrease in Vmax at 3.2 to 12.8 uM using varying levels of acetylthiocholine iodide as substrate by Lineweaver-Burk plot analysis. The conditions noted are these: dose 3.2-12.8 µM.
Assay [4] is described as follows: Cytotoxicity against human PBMC assessed as reduction in cell viability. In kind it is ADME, tissue-based.
In a further assay the test system is HepG2. Kind of assay: Cytotoxicity against human HepG2 cells assessed as reduction in cell viability. In kind it is ADME, cell-based.
The target in assay [5] is Acetylcholinesterase (Electrophorus electricus) (UniProt O42275). Kind of assay: Mixed type inhibition of electric eel AChE assessed as increase in Km at 3.2 to 12.8 uM using varying levels of acetylthiocholine iodide as substrate by Lineweaver-Burk plot analysis. Particulars: dose 3.2-12.8 µM.
Sequence of Acetylcholinesterase (Electrophorus electricus) (O42275 24-633 limits assumed): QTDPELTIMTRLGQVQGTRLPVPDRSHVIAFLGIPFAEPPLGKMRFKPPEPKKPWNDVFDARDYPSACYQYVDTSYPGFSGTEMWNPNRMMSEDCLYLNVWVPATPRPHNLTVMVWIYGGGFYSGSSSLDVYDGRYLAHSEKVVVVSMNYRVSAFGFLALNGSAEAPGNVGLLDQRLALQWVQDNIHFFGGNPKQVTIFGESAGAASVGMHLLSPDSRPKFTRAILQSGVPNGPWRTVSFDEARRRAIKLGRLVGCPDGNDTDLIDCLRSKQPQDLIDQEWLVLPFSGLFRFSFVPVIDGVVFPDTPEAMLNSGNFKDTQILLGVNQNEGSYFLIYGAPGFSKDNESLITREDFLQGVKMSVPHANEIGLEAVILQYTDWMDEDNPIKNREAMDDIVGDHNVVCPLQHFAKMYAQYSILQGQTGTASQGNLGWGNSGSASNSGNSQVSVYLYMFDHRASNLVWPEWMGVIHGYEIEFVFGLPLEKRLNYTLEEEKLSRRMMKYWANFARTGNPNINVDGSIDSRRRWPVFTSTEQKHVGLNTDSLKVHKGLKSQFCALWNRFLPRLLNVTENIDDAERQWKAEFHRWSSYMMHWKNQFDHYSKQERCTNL

Active and inactive are the calls of the source. The rule behind the calls is not given here.

Sequence of Acetylcholinesterase (O42275 whole entry): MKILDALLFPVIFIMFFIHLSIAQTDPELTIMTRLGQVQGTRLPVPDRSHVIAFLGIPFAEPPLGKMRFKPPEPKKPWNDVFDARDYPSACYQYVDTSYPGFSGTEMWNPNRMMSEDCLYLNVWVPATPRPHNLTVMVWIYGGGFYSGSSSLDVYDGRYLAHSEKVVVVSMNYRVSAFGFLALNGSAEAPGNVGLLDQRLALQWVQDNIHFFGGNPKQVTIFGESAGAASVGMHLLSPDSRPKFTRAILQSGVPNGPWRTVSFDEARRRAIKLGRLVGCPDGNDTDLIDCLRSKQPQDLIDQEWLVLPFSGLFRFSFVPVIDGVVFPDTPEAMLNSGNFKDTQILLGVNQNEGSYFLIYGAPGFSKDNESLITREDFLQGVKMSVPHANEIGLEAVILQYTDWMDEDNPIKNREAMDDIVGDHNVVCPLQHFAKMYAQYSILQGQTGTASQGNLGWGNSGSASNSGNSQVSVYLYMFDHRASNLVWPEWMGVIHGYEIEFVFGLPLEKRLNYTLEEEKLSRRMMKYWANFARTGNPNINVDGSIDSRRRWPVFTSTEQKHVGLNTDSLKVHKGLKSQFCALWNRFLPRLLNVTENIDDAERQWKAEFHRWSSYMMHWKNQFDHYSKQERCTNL
Sequence of Cholinesterase (P81908 whole entry): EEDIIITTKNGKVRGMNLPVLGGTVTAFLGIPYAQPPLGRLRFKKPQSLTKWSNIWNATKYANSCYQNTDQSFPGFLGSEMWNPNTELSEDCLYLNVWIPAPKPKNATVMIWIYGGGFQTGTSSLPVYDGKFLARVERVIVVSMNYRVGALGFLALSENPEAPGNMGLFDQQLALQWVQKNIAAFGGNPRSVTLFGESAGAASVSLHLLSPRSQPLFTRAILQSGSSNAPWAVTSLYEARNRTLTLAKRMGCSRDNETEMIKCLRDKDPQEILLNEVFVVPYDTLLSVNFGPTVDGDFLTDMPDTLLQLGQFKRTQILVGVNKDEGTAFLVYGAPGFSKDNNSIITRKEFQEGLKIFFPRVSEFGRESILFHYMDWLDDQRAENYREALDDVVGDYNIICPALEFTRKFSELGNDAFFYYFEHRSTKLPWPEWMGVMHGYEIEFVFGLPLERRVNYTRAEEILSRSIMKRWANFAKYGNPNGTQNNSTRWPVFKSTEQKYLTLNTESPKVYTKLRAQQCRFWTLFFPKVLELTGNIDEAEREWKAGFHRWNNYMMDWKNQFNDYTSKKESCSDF

As to `CC(C)=CCOc1ccc2c(c1)OC(c1ccccc1F)CC2=O` (centres undefined), the IC50 at Cholinesterase amounted to 5.47 µM; at Acetylcholinesterase it was 1.92 µM; in assay [2], 6.36 µM. Besides, the Ratio IC50 in assay [1] turned out to be 2.85.

Turning to `COc1ccc(C2CC(=O)c3c(O)cc(OCC=C(C)C)cc3O2)cc1` (centres undefined), the IC50 on Cholinesterase was 5.77 µM; at Acetylcholinesterase, 0.27 µM; in assay [2] it was 5.08 µM. Also, the Ratio IC50 in assay [1] came out at 21.4.

For the compound `CC(C)=CCOc1ccc2c(c1)OC(c1ccccc1Cl)CC2=O` (centres undefined), the IC50 on Cholinesterase was 5.37 µM; against Acetylcholinesterase it was 3.17 µM; in assay [2], 8.02 µM. In assay [1], the Ratio IC50 came out at 1.69.

Turning to `CC(C)=CCOc1cc(O)c2c(c1)OC(c1cccc(Br)c1)CC2=O` (centres undefined), the IC50 against Cholinesterase turned out to be 5.22 µM; at Acetylcholinesterase it was 0.82 µM; in assay [2], 4.04 µM. Moreover, the Ratio IC50 in assay [1] was 6.37.

Regarding `CC(C)=CCOc1cc(O)c2c(c1)OC(c1ccc(C)cc1C)CC2=O` (centres undefined), the values for the IC50 (at Cholinesterase; on Acetylcholinesterase; in assay [2]) were 3.92 µM, 0.72 µM and 6.38 µM, respectively. For the same compound, the Ratio IC50 in assay [1] came out at 5.44.

On to `CC(C)=CCOc1ccc2c(c1)OC(c1ccccc1Br)CC2=O` (centres undefined), for which the half-inhibitory concentration (IC50) against Cholinesterase worked out at 5.02 µM; at Acetylcholinesterase, 2.02 µM; in assay [2], 3.18 µM. Besides, in assay [1], the Ratio IC50 amounted to 2.49.

In the case of `CC(C)=CCOc1ccc2c(c1)OC(c1cccc(Cl)c1)CC2=O` (centres undefined), the IC50 against Cholinesterase was 3.59 µM; against Acetylcholinesterase, 1.5 µM; in assay [2], 6.3 µM. For the same compound, in assay [1], the Ratio IC50 turned out to be 2.39.

Consider `CC(C)=CCOc1cc(O)c2c(c1)OC(c1ccccc1F)CC2=O` (centres undefined), for which the IC50 against Cholinesterase stood at 7.37 µM; on Acetylcholinesterase, 1.27 µM; in assay [2], 5.3 µM. Moreover, the Ratio IC50 in assay [1] turned out to be 5.8.

For the compound `CC(C)=CCOc1ccc2c(c1)OC(c1ccc(C)cc1)CC2=O` (centres undefined), the IC50 against Cholinesterase was 4.09 µM; at Acetylcholinesterase, 1.12 µM; in assay [2], 4.44 µM. Further, the Ratio IC50 in assay [1] turned out to be 3.65.

For `CC(C)=CCOc1ccc2c(c1)OC(c1ccc(O)cc1)CC2=O` (centres undefined), the IC50 on Cholinesterase is 5.02 µM; against Acetylcholinesterase, 3.09 µM; in assay [2], 6.67 µM. In assay [1], the Ratio IC50 stood at 1.62.

Regarding `CC(C)=CCOc1cc(O)c2c(c1)OC(c1ccccc1)CC2=O` (centres undefined), the results for the IC50 (against Cholinesterase; against Acetylcholinesterase; in assay [2]) were 6.54 µM, 3.04 µM and 7.32 µM, respectively. Also, in assay [1], the Ratio IC50 turned out to be 2.15.

In the case of `COc1ccc(C2CC(=O)c3c(O)cc(OCC=C(C)C)cc3O2)c(OC)c1` (centres undefined), the concentration for half-maximal inhibition (IC50) is 5.46 µM on Cholinesterase; 0.09 µM at Acetylcholinesterase; 2.32 µM in assay [2]; greater than 100 µM in assay [4]; greater than 100 µM with HepG2. The inhibition result in assay [3] and in assay [5] was “Active” each time. Further, the Ratio IC50 in assay [1] came to 60.7.

Take `CC(C)=CCOc1ccc2c(c1)OC(c1ccc(Cl)cc1)CC2=O` (centres undefined): the results for the IC50 (against Cholinesterase; on Acetylcholinesterase; in assay [2]) were 4.22 µM, 2.12 µM and 6.97 µM, respectively. Moreover, the Ratio IC50 in assay [1] worked out at 1.99.

As to `CC(C)=CCOc1cc(O)c2c(c1)OC(c1ccc(F)cc1)CC2=O` (centres undefined), the results for the IC50 (against Cholinesterase; on Acetylcholinesterase; in assay [2]) were 6.84 µM, 0.24 µM and 6.06 µM, respectively. Besides, in assay [1], the Ratio IC50 is 28.5.

For `CC(C)=CCOc1cc(O)c2c(c1)OC(c1ccc(Br)cc1)CC2=O` (centres undefined), the IC50 is 6.04 µM against Cholinesterase; 0.11 µM against Acetylcholinesterase; 2.77 µM in assay [2]; greater than 100 µM in assay [4]; greater than 80 µM with HepG2. Moreover, the Ratio IC50 in assay [1] stood at 54.9.

Turning to `COc1ccc(C2CC(=O)c3ccc(OCC=C(C)C)cc3O2)c(OC)c1` (centres undefined), the IC50 against Cholinesterase is 5.65 µM; against Acetylcholinesterase it was 0.37 µM; in assay [2], 8.18 µM. Moreover, the Ratio IC50 in assay [1] amounted to 15.3.

Consider `CC(C)=CCOc1ccc2c(c1)OC(c1ccc(Br)cc1)CC2=O` (centres undefined), for which the IC50 on Cholinesterase was 3.87 µM; against Acetylcholinesterase it was 0.77 µM; in assay [2], 8.12 µM. Besides, the Ratio IC50 in assay [1] is 5.03.

As to `CC(C)=CCOc1ccc2c(c1)OC(c1ccc(Cl)cc1Cl)CC2=O` (centres undefined), the IC50 at Cholinesterase turned out to be 3.47 µM; at Acetylcholinesterase, 1.33 µM; in assay [2] it was 5.26 µM. Besides, in assay [1], the Ratio IC50 worked out at 2.61.

On to `CC(C)=CCOc1cc(O)c2c(c1)OC(c1ccccc1Br)CC2=O` (centres undefined), for which the IC50 was determined as 3.87 µM at Cholinesterase, 1.18 µM on Acetylcholinesterase and 3.82 µM in assay [2]. Moreover, the Ratio IC50 in assay [1] was determined as 3.28.

Regarding `CC(C)=CCOc1cc(O)c2c(c1)OC(c1ccc(Cl)cc1Cl)CC2=O` (centres undefined), the values for the IC50 (on Cholinesterase; on Acetylcholinesterase; in assay [2]) were 6.94 µM, 1.04 µM and 3.34 µM, respectively. The Ratio IC50 in assay [1] stood at 6.67.

As for `CC(C)=CCOc1ccc2c(c1)OC(c1ccc(F)cc1)CC2=O` (centres undefined), the IC50 came to 2.58 µM against Cholinesterase, 0.55 µM against Acetylcholinesterase and 7.32 µM in assay [2]. For the same compound, in assay [1], the Ratio IC50 was 4.69.

For the compound `COc1ccc(C2CC(=O)c3ccc(OCC=C(C)C)cc3O2)cc1` (centres undefined), the IC50 was determined as 4.54 µM at Cholinesterase, 0.63 µM at Acetylcholinesterase and 10.2 µM in assay [2]. Moreover, the Ratio IC50 in assay [1] worked out at 7.21.

`CC(C)=CCOc1cc(O)c2c(c1)OC(c1ccc(C)cc1)CC2=O` (centres undefined): the IC50 against Cholinesterase was 6.54 µM; against Acetylcholinesterase it was 1 µM; in assay [2], 4.36 µM. For the same compound, the Ratio IC50 in assay [1] was 6.54.

Take `CC(C)=CCOc1cc(O)c2c(c1)OC(c1ccc(Cl)cc1)CC2=O` (centres undefined): the IC50 on Cholinesterase is 7.07 µM; on Acetylcholinesterase, 1.17 µM; in assay [2], 7.02 µM. In assay [1], the Ratio IC50 is 6.04.

`CC(C)=CCOc1cc(O)c2c(c1)OC(c1ccc(O)cc1)CC2=O` (centres undefined): the IC50 was 5.38 µM on Cholinesterase, 2.37 µM at Acetylcholinesterase and 5.34 µM in assay [2]. Besides, the Ratio IC50 in assay [1] is 2.27.

Turning to `O=C1C[C@@H](c2ccc(O)cc2)Oc2cc(O)ccc21` [LIQUIRTIGENIN], the IC50 against Cholinesterase stood at 14 µM; on Acetylcholinesterase, 9.1 µM; in assay [2] it was 8.96 µM. In addition, in assay [1], the Ratio IC50 worked out at 1.55.

`CC(C)=CCOc1ccc2c(c1)OC(c1cccc(Br)c1)CC2=O` (centres undefined): the IC50 came out at 4.5 µM on Cholinesterase, 1.84 µM on Acetylcholinesterase and 5.28 µM in assay [2]. Further, the Ratio IC50 in assay [1] turned out to be 2.45.

Turning to `Cc1c(C)c2c(c(C)c1O)CCC(C)(C(=O)O)O2` (centres undefined) [TROLOX], the IC50 in assay [2] stood at 6.12 µM.

With `CC(C)=CCOc1ccc2c(c1)OC(c1ccc(C)cc1C)CC2=O` (centres undefined), the values for the IC50 (on Cholinesterase; against Acetylcholinesterase; in assay [2]) were 3.42 µM, 0.94 µM and 8.26 µM, respectively. In addition, the Ratio IC50 in assay [1] stood at 3.64.

For the compound `CC(C)=CCOc1cc(O)c2c(c1)OC(c1cccc(F)c1)CC2=O` (centres undefined), the IC50 against Cholinesterase worked out at 5.09 µM; on Acetylcholinesterase, 0.92 µM; in assay [2] it was 7.24 µM. Further, the Ratio IC50 in assay [1] amounted to 5.53.

As to `CC(C)=CCOc1ccc2c(c1)OC(c1ccccc1)CC2=O` (centres undefined), the IC50 was determined as 9.54 µM against Cholinesterase, 5.32 µM at Acetylcholinesterase and 6.07 µM in assay [2]. The Ratio IC50 in assay [1] stood at 1.79.

For the compound `CC(C)=CCOc1cc(O)c2c(c1)OC(c1cccc(Cl)c1)CC2=O` (centres undefined), the IC50 against Cholinesterase came to 6.82 µM; at Acetylcholinesterase it was 0.99 µM; in assay [2], 6.06 µM. In assay [1], the Ratio IC50 was 6.89.

As for `CC(C)=CCOc1cc(O)c2c(c1)OC(c1ccccc1Cl)CC2=O` (centres undefined), the IC50 was 7.54 µM against Cholinesterase, 2.14 µM on Acetylcholinesterase and 4.27 µM in assay [2]. The Ratio IC50 in assay [1] was 3.52.

On to `CC(C)=CCOc1ccc2c(c1)OC(c1cccc(F)c1)CC2=O` (centres undefined), for which the values for the IC50 (against Cholinesterase; at Acetylcholinesterase; in assay [2]) were 4.02 µM, 1.48 µM and 4.28 µM, respectively. Besides, the Ratio IC50 in assay [1] is 2.72.

The values are drawn from ChEMBL document CHEMBL5030530, “Design, synthesis, and cholinesterase inhibition assay of liquiritigenin derivatives as anti-Alzheimer's activity” (Bioorg Med Chem Lett, 2021).
